Data as given in patent US8609610B2, “Inhibitors of the trypsin-like site of the proteasome and methods of use thereof” (Trustees of Dartmouth College, priority 2011, dated 2013).

Assays:
NCI-H929 cells = assay: ALAMAR BLUE cell viability assay; type: cell-based; conditions: NCI-H929, viability at 48 h
Procedure: (§1) RPMI-8226 and NCI-H929 cells were cultured in RPMI-1640 supplemented with 10% fetal bovine serum, penicillin, streptomycin, and plasmocin in 5% CO2 humidified incubator. HEK-293T cells were cultured in DMEM containing 10% fetal calf serum, 10 units/mL penicillin, and 10 μg/mL streptomycin in a 7% CO2 humidified incubator. Viability of multiple myeloma cells was measured with ALAMAR BLUE mitochondrial dye conversion assay. Viability of peripheral blood mononuclear cells (PBMNCs) was measured using CELL TITER-GLO luminescent cell viability assay (Promega), which is based on quantification of ATP present in the cells. Caspase-3/7 activity was measured using APO-ONE 3/7 homogeneous assay (Promega).

KMS-12-BM cells = assay: ALAMAR BLUE cell viability assay; type: cell-based; conditions: viability at 48 h
Procedure: as §1

[1] = test system: T1, chymotrypsin-like sites (β5) of proteasome in MM cells; assay: PROTEASOMEGLO assay of proteasome inhibition in MM cells; type: cell-based; conditions: for Inhibition of chymotrypsin-like sites, 6 h −NC-022 / Inhibition of chymotrypsin-like sites, 6 h +NC-022: washout
T1 construct: other: NCI-H929; bortezomib 100 nM 1 h; bortezomib 11 nM 1 h; bortezomib 3.7 nM 1 h; bortezomib 33 nM 1 h; other: NCI-H9
Procedure: (§2) Proteasome inhibition in MM cells was measured with luminogenic substrates using PROTEASOMEGLO assay (Promega). […] An aliquot of culture was pelleted and medium was removed and replaced with PBS. The resulting cell suspension was mixed with luminogenic substrates in the manufacturer-provided lysis/assay buffer. After 3 minutes mixing on an orbital shaker, the plate was incubated in the dark for additional 17 minutes, followed by the measurements of the luminescence, performed in triplicate for each substrate/data point. Data were analyzed as for purified proteasomes. […] Cells (1×10^6 per well of a 6-well plate) were incubated with the inhibitors for 4 hours at 37° C. and this was followed by a 2 hour incubation with 5 μM BODIPY-TMR-epoxomicin. Subsequently, the medium was removed and the cells were washed with PBS and harvested. […] The supernatant was collected and the protein concentration was determined by the Bradford assay, and used to normalize gel loading. The samples were analysed by SDS-PAGE and fluorescent densitometry as described for competition experiment in cell lysates. IC50 values were calculated from three independent experiments using […] PRISM software.

[2] = molecular target: T2, trypsin-like sites (β2) of proteasome in MM cells (Homo sapiens, UniProt Q99436); assay: as above; type: cell-based; conditions: for Inhibition of trypsin-like sites, 6 h +NC-022 / Inhibition of trypsin-like sites, 6 h −NC-022: washout
T2 construct: endogenous in cells; host or cells: NCI-H929, RPMI-8226 and other MM cell lines
T2 sequence (Q99436 44-277): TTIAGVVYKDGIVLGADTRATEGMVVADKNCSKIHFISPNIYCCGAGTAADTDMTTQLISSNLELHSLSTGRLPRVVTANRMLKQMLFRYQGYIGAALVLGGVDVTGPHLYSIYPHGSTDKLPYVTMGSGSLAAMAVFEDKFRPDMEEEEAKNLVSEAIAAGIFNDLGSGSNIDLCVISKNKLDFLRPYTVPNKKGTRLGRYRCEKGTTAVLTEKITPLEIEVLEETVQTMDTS
Procedure: as §2

[3] = test system: chymotrypsin-like sites (β5) of proteasome in MM cells; assay: as above; type: cell-based; conditions: KMS-12-BM, washout
Procedure: as §2

chymotrypsin-like sites = conditions: patients treated with bortezomib, maximal tolerated doses; cited from earlier work
[4] = KMS-12-BM, bortezomib 33.3 nM 1 h
[5] = KMS-12-BM, bortezomib 100 nM 1 h
[6] = KMS-12-BM, bortezomib 300 nM 1 h
[7] = KMS-12-BM, bortezomib 900 nM 1 h
[8] = NCI-H929, bortezomib 3.7 nM 1 h
[9] = NCI-H929, bortezomib 100 nM 1 h

CC(C)C[C@H](NC(=O)[C@H](Cc1ccccc1)NC(=O)c1cnccn1)B(O)O [Bortezomib]
Viability +NC-022 (NCI-H929 cells; bortezomib 3.7 nM 1 h): 85 ± 3 % control
Viability −NC-022 (NCI-H929 cells; bortezomib 3.7 nM 1 h): 107 ± 5 % control
Viability +NC-022 (NCI-H929 cells; bortezomib 11 nM 1 h): 65 ± 1 % control
Viability −NC-022 (NCI-H929 cells; bortezomib 11 nM 1 h): 106 ± 2 % control
Viability +NC-022 (NCI-H929 cells; bortezomib 33 nM 1 h): 19 ± 19 % control
Viability −NC-022 (NCI-H929 cells; bortezomib 33 nM 1 h): 53 ± 17 % control
Viability +NC-022 (NCI-H929 cells; bortezomib 100 nM 1 h): 1.9 ± 1.5 % control
Viability −NC-022 (NCI-H929 cells; bortezomib 100 nM 1 h): 2.9 ± 1.5 % control
Viability +NC-022 (KMS-12-BM cells; bortezomib 33.3 nM 1 h): 72 ± 1 % control
Viability −NC-022 (KMS-12-BM cells; bortezomib 33.3 nM 1 h): 98 ± 13 % control
Viability +NC-022 (KMS-12-BM cells; bortezomib 100 nM 1 h): 42 ± 10 % control
Viability −NC-022 (KMS-12-BM cells; bortezomib 100 nM 1 h): 92 ± 9 % control
Viability +NC-022 (KMS-12-BM cells; bortezomib 300 nM 1 h): 14 ± 11 % control
Viability −NC-022 (KMS-12-BM cells; bortezomib 300 nM 1 h): 66 ± 9 % control
Viability +NC-022 (KMS-12-BM cells; bortezomib 900 nM 1 h): 3.8 ± 2.5 % control
Viability −NC-022 (KMS-12-BM cells; bortezomib 900 nM 1 h): 14 ± 12 % control
Inhibition of chymotrypsin-like sites, 1 h [1, 4]: 82 ± 8 % control
Inhibition of chymotrypsin-like sites, 6 h −NC-022 [1, 4]: 56 ± 24 % control
Inhibition of chymotrypsin-like sites, 1 h [1, 5]: 90 ± 6 % control
Inhibition of chymotrypsin-like sites, 6 h −NC-022 [1, 5]: 64 ± 23 % control
Inhibition of chymotrypsin-like sites, 1 h [1, 6]: 93 ± 3 % control
Inhibition of chymotrypsin-like sites, 6 h +NC-022 [1, 6]: 83 ± 6 % control
Inhibition of chymotrypsin-like sites, 6 h −NC-022 [1, 6]: 76 ± 18 % control
Inhibition of chymotrypsin-like sites, 1 h [1, 7]: 93 ± 5 % control
Inhibition of chymotrypsin-like sites, 6 h +NC-022 [1, 7]: 88 ± 5 % control
Inhibition of chymotrypsin-like sites, 6 h −NC-022 [1, 7]: 84 ± 16 % control
Inhibition of chymotrypsin-like sites, 1 h [1, 8]: 9 ± 7 % control
Inhibition of chymotrypsin-like sites, 6 h +NC-022 [1, 8]: 14 ± 13 % control
Inhibition of chymotrypsin-like sites, 6 h −NC-022 [1, 8]: 13 ± 1 % control
Inhibition of chymotrypsin-like sites, 1 h ([1]; NCI-H929, bortezomib 11 nM 1 h): 64 ± 7 % control
Inhibition of chymotrypsin-like sites, 6 h +NC-022 ([1]; NCI-H929, bortezomib 11 nM 1 h): 34 ± 29 % control
Inhibition of chymotrypsin-like sites, 6 h −NC-022 ([1]; NCI-H929, bortezomib 11 nM 1 h): 41 ± 3.5 % control
Inhibition of chymotrypsin-like sites, 1 h ([1]; NCI-H929, bortezomib 33 nM 1 h): 89 ± 2 % control
Inhibition of chymotrypsin-like sites, 6 h +NC-022 ([1]; NCI-H929, bortezomib 33 nM 1 h): 48 ± 35 % control
Inhibition of chymotrypsin-like sites, 6 h −NC-022 ([1]; NCI-H929, bortezomib 33 nM 1 h): 85 ± 4 % control
Inhibition of chymotrypsin-like sites, 1 h [1, 9]: 96 ± 2 % control
Inhibition of chymotrypsin-like sites, 6 h +NC-022 [1, 9]: 93 ± 2 % control
Inhibition of chymotrypsin-like sites, 6 h −NC-022 [1, 9]: 86 ± 1 % control
Inhibition of trypsin-like sites, 1 h [2, 4]: 10 ± 11 % control
Inhibition of trypsin-like sites, 6 h +NC-022 [2, 4]: 92 ± 0 % control
Inhibition of trypsin-like sites, 6 h −NC-022 [2, 4]: 8 ± 15 % control
Inhibition of trypsin-like sites, 1 h [2, 5]: 19 ± 3 % control
Inhibition of trypsin-like sites, 6 h +NC-022 [2, 5]: 92 ± 1 % control
Inhibition of trypsin-like sites, 6 h −NC-022 [2, 5]: 15 ± 11 % control
Inhibition of trypsin-like sites, 1 h [2, 6]: 22 ± 12 % control
Inhibition of trypsin-like sites, 6 h +NC-022 [2, 6]: 91 ± 2 % control
Inhibition of trypsin-like sites, 6 h −NC-022 [2, 6]: 24 ± 18 % control
Inhibition of trypsin-like sites, 1 h [2, 7]: 28 ± 5 % control
Inhibition of trypsin-like sites, 6 h +NC-022 [2, 7]: 93 ± 1 % control
Inhibition of trypsin-like sites, 6 h −NC-022 [2, 7]: 26 ± 19 % control
Inhibition of trypsin-like sites, 1 h [2, 8]: 0 ± 7 % control
Inhibition of trypsin-like sites, 6 h +NC-022 [2, 8]: 93 ± 2 % control
Inhibition of trypsin-like sites, 6 h −NC-022 [2, 8]: 6 ± 4 % control
Inhibition of trypsin-like sites, 1 h ([2]; NCI-H929, bortezomib 11 nM 1 h): 8 ± 11 % control
Inhibition of trypsin-like sites, 6 h +NC-022 ([2]; NCI-H929, bortezomib 11 nM 1 h): 93 ± 2 % control
Inhibition of trypsin-like sites, 6 h −NC-022 ([2]; NCI-H929, bortezomib 11 nM 1 h): 14 ± 2 % control
Inhibition of trypsin-like sites, 1 h ([2]; NCI-H929, bortezomib 33 nM 1 h): 26 ± 15 % control
Inhibition of trypsin-like sites, 6 h +NC-022 ([2]; NCI-H929, bortezomib 33 nM 1 h): 94 ± 1 % control
Inhibition of trypsin-like sites, 6 h −NC-022 ([2]; NCI-H929, bortezomib 33 nM 1 h): 31 ± 0 % control
Inhibition of trypsin-like sites, 1 h [2, 9]: 36 ± 17 % control
Inhibition of trypsin-like sites, 6 h +NC-022 [2, 9]: 96 ± 1 % control
Inhibition of trypsin-like sites, 6 h −NC-022 [2, 9]: 45 ± 2 % control
Inhibition of chymotrypsin-like sites, 6 h +NC-022 ([3]; bortezomib 33.3 nM 1 h): 62 ± 7 % control
Inhibition of chymotrypsin-like sites, 6 h +NC-022 ([3]; bortezomib 100 nM 1 h): 75 ± 6 % control
inhibition of the chymotrypsin-like sites in patients (chymotrypsin-like sites): ≤ 70%
